Tests used:
[1] = Octanol/PBS distribution coefficient (logD7.4); type: physicochemical; conditions: pH 7.4
Method: (§1) The stability studies with the ^177Lu-labeled peptide analogs were carried out at a concentration of 0.5 nmol peptide/mL in fresh human serum (n = 2) for up to 24 h. A mixture of 0.05 nmol/mL of the radiolabeled peptides in PBS and octanol (1/1, v/v) was used to evaluate the octanol/PBS distribution coefficient (logD7.4; n = 8). To determine the protein binding in human serum by Sephadex G-50 size-exclusion chromatography (GE Healthcare Illustra, Little Chalfont, UK), a 25 µL serum sample was used for different time points after incubation. All steps were performed according to previously published protocols.

[2] = Biodistribution blocking experiment with 1000-fold excess of non-radiolabeled peptide; type: in vivo, mice; conditions: female, BALB/c nude, mouse, in vivo, iv, total radioactivity, blocking
Method: Then, after 7–11 days, when visible tumor xenografts were formed, groups of 5 mice were injected intravenously via a lateral tail vein with ~0.5 MBq of radiolabeled peptide, corresponding to 20 pmol of peptide, in a total volume of ~150 µL in PBS/0.5% BSA. Using an additional mouse per group, a blocking study was performed by co-injecting a 1000-fold molar excess of the respective peptide analog (20 nmol) together with the radiolabeled peptide. For quantification, a 1:1, 1:10 and 1:50 standard was prepared using aliquots of the injection solution mixed with PBS/0.5% BSA. Mice were euthanized by cervical dislocation 4 h after injection. Subsequently, a blood sample was collected, and different tissues were dissected. All samples, as well as the rest of the body were weighed, and the activity measured in the γ-counter together with the standard. Results were expressed as percentage of injected activity per gram of tissue (%IA/g).

human serum proteins = experiment: Protein binding in human serum by Sephadex G-50 size-exclusion chromatography; type: in vitro ADME
Method: as §1

[3] = design: species or system human
Text: Based on these preliminary studies, [^177Lu]Lu-2 was selected for further biodistribution studies evaluating the tumor uptake and tissue distribution for up to 7 days after injection. This study was approved by the Nijmegen Medical Center animal ethics committee (RUDEC) and the Dutch animal ethics committee (CCD) of the Radboud University (2020–0007-020). Female BALB/c nude mice were inoculated with A431-CCK2R cells at an age of 8–10 weeks (n = 20). When tumor xenografts were formed, mice were injected intravenously via a lateral tail vein with ~1 MBq of [^177Lu]Lu-2, corresponding to 20 pmol of peptide, in a total volume of 200 µL in PBS/0.5% BSA. For quantification, a 1% standard was used. […] All collected samples were weighed and measured in the γ-counter together with the standard. Results were expressed as percentage of injected activity per gram of tissue (%IA/g), and tumor-to-organ activity ratios were calculated for selected tissues. For dose-limiting organs, kidneys and stomach, dosimetry estimates were calculated using Olinda-EXM (version 2.2, Vanderbilt University) and standard weights for humans (male and female). For this purpose, the % IA/g determined in mice was extrapolated to humans using the following equation: % IA per organ in humans=[%IA/gin mice×mass of mice (kg)]×(mass of human organ (g)/total body mass of human (kg)) […]

[4] = tested on: A431-CCK2R xenografted BALB/c nude mice; experiment: in vivo; conditions: mouse
Text: (§2) Based on these preliminary studies, [^177Lu]Lu-2 was selected for further biodistribution studies evaluating the tumor uptake and tissue distribution for up to 7 days after injection. This study was approved by the Nijmegen Medical Center animal ethics committee (RUDEC) and the Dutch animal ethics committee (CCD) of the Radboud University (2020–0007-020). Female BALB/c nude mice were inoculated with A431-CCK2R cells at an age of 8–10 weeks (n = 20). When tumor xenografts were formed, mice were injected intravenously via a lateral tail vein with ~1 MBq of [^177Lu]Lu-2, corresponding to 20 pmol of peptide, in a total volume of 200 µL in PBS/0.5% BSA. For quantification, a 1% standard was used. At different time points of 1 h, 24 h, 3 days, and 7 days after injecton, animals were euthanized by CO2/O2-asphyxiation and a blood sample was immediately drawn, and tissues of interest (spleen, pancreas, stomach, intestine, kidneys, liver, heart, lung, muscle, femur, A431-CCK2R tumor, and A431-mock tumor) were dissected. All collected samples were weighed and measured in the γ-counter together with the standard. Results were expressed as percentage of injected activity per gram of tissue (%IA/g), and tumor-to-organ activity ratios were calculated for selected tissues. For dose-limiting organs, kidneys and stomach, dosimetry estimates were calculated using Olinda-EXM (version 2.2, Vanderbilt University) and standard weights for humans (male and female). For this purpose, the % IA/g determined in mice was extrapolated to humans using the following equation: % IA per organ in humans=[%IA/gin mice×mass of mice (kg)]×(mass of human organ (g)/total body mass of human (kg))

in vivo = experiment: in vivo; design: species or system mice; conditions: female, BALB/c nude, mouse, iv, 20 pmol, total radioactivity
Text: as §2

[5] = female, BALB/c nude, iv, 20 pmol, 72 h
[6] = uptake in A431-CCK2R xenografts

logD [1]: -2.18 ± 0.38 | tissue uptake at 4 h ([2]; uptake in A431-CCK2R xenograft): 0.39 %ID/g | tissue uptake at 4 h ([2]; uptake in A431-mock xenograft): 0.16 %ID/g | tissue uptake at 4 h ([2]; uptake in blood): 0.02 %ID/g | tissue uptake at 4 h ([2]; uptake in femur): 0.09 %ID/g | tissue uptake at 4 h ([2]; uptake in heart): 0.04 %ID/g | tissue uptake at 4 h ([2]; uptake in lung): 0.2 %ID/g | tissue uptake at 4 h ([2]; uptake in pancreas): 0.05 %ID/g | tissue uptake at 4 h ([2]; uptake in stomach): 0.09 %ID/g | change in binding to human serum proteins compared to [177Lu]Lu-DOTA-MGS5 (human serum proteins): 2-fold decrease | decrease in protein binding compared to [177Lu]Lu-DOTA-MGS5 (human serum proteins; human, serum): ~ 50% | cumulative absorbed radiation dose, kidneys [3]: < 5 Gy | cumulative absorbed radiation dose, stomach [3]: < 10 Gy | uptake in A431-CCK2R xenografts ([4]; female, BALB/c nude, iv, 20 pmol, 1 h): ~ 56 % IA/g | Tumor-to-kidney ratio [4, 5]: 17.3 | Tumor-to-stomach ratio [4, 5]: 5.5 | uptake in A431-CCK2R xenografts [4, 5]: ~ 13 % IA/g | uptake in kidneys [4, 5]: below 1 % IA/g | decrease of kidney uptake after 24 h versus 1 h p.i. [4]: ~ 54% | drop of uptake in A431-CCK2R xenografts after 24 h versus 1 h p.i. [4]: ~ 40% | improvement in tumor uptake in comparison with [177Lu]Lu-PP-F11N [4]: 4 fold | reduction of stomach uptake at 24 h p.i. versus 1 h p.i. [4]: ~ 33% | tissue to tissue ratio at 1 h (in vivo; Tumor-to-blood ratio): 38.9 | tissue to tissue ratio at 24 h (in vivo; Tumor-to-blood ratio): 3240 | tissue to tissue ratio at 72 h (in vivo; Tumor-to-blood ratio): 4860 | tissue to tissue ratio at 168 h (in vivo; Tumor-to-blood ratio): 241 | tissue to tissue ratio at 1 h (in vivo; Tumor-to-kidney ratio): 19.8 | tissue to tissue ratio at 24 h (in vivo; Tumor-to-kidney ratio): 25.5 | tissue to tissue ratio at 72 h (in vivo; Tumor-to-kidney ratio): ~17 | tissue to tissue ratio at 168 h (in vivo; Tumor-to-kidney ratio): 4 | tissue to tissue ratio at 1 h (in vivo; Tumor-to-stomach ratio): 10.4 | tissue to tissue ratio at 24 h (in vivo; Tumor-to-stomach ratio): 9.2 | tissue to tissue ratio at 72 h (in vivo; Tumor-to-stomach ratio): ~6 | tissue to tissue ratio at 168 h (in vivo; Tumor-to-stomach ratio): 1.4 | tissue uptake at 1 h (in vivo; [6]): 56.3 ± 9.14 %ID/g | tissue uptake at 24 h (in vivo; [6]): 33.6 ± 2.95 %ID/g | tissue uptake at 72 h (in vivo; [6]): 12.5 ± 0.96 %ID/g | tissue uptake at 168 h (in vivo; [6]): 1.23 ± 0.53 %ID/g | tissue uptake at 1 h (in vivo; uptake in blood): 1.45 ± 0.3 %ID/g | tissue uptake at 168 h (in vivo; uptake in blood): 0.01 %ID/g | tissue uptake at 1 h (in vivo; uptake in femur): 0.23 ± 0.05 %ID/g | tissue uptake at 24 h (in vivo; uptake in femur): 0.05 ± 0.01 %ID/g | tissue uptake at 72 h (in vivo; uptake in femur): 0.03 ± 0.01 %ID/g | tissue uptake at 168 h (in vivo; uptake in femur): 0.04 ± 0.02 %ID/g | tissue uptake at 1 h (in vivo; uptake in heart): 0.62 ± 0.12 %ID/g | tissue uptake at 24 h (in vivo; uptake in heart): 0.05 ± 0.01 %ID/g | tissue uptake at 72 h (in vivo; uptake in heart): 0.02 %ID/g | tissue uptake at 168 h (in vivo; uptake in heart): 0.02 %ID/g | tissue uptake at 1 h (in vivo; uptake in intestine): 1 ± 0.34 %ID/g | tissue uptake at 24 h (in vivo; uptake in intestine): 0.16 ± 0.02 %ID/g | tissue uptake at 72 h (in vivo; uptake in intestine): 0.08 %ID/g | tissue uptake at 168 h (in vivo; uptake in intestine): 0.03 %ID/g | tissue uptake at 1 h (in vivo; uptake in kidneys): 2.84 ± 0.42 %ID/g | tissue uptake at 24 h (in vivo; uptake in kidneys): 1.32 ± 0.23 %ID/g | tissue uptake at 72 h (in vivo; uptake in kidneys): 0.72 ± 0.1 %ID/g | tissue uptake at 1 h (in vivo; uptake in liver): 0.95 ± 0.12 %ID/g | tissue uptake at 24 h (in vivo; uptake in liver): 0.38 ± 0.08 %ID/g | tissue uptake at 72 h (in vivo; uptake in liver): 0.18 ± 0.01 %ID/g | tissue uptake at 168 h (in vivo; uptake in liver): 0.06 ± 0.01 %ID/g | tissue uptake at 1 h (in vivo; uptake in lung): 4.33 ± 0.87 %ID/g | tissue uptake at 24 h (in vivo; uptake in lung): 0.09 ± 0.02 %ID/g | tissue uptake at 72 h (in vivo; uptake in lung): 0.06 ± 0.01 %ID/g | tissue uptake at 168 h (in vivo; uptake in lung): 0.02 ± 0.01 %ID/g | tissue uptake at 1 h (in vivo; uptake in muscle): 0.22 ± 0.05 %ID/g | tissue uptake at 24 h (in vivo; uptake in muscle): 0.03 %ID/g | tissue uptake at 72 h (in vivo; uptake in muscle): 0.01 %ID/g | tissue uptake at 168 h (in vivo; uptake in muscle): 0.01 ± 0.01 %ID/g | tissue uptake at 1 h (in vivo; uptake in pancreas): 0.85 ± 0.14 %ID/g | tissue uptake at 24 h (in vivo; uptake in pancreas): 0.41 ± 0.08 %ID/g | tissue uptake at 72 h (in vivo; uptake in pancreas): 0.28 ± 0.04 %ID/g | tissue uptake at 168 h (in vivo; uptake in pancreas): 0.16 ± 0.04 %ID/g | tissue uptake at 1 h (in vivo; uptake in spleen): 0.54 ± 0.08 %ID/g | tissue uptake at 24 h (in vivo; uptake in spleen): 0.19 ± 0.03 %ID/g | tissue uptake at 72 h (in vivo; uptake in spleen): 0.13 ± 0.02 %ID/g | tissue uptake at 168 h (in vivo; uptake in spleen): 0.09 ± 0.04 %ID/g | tissue uptake at 1 h (in vivo; uptake in stomach): 5.43 ± 1.05 %ID/g | tissue uptake at 24 h (in vivo; uptake in stomach): 3.66 ± 0.38 %ID/g | tissue uptake at 72 h (in vivo; uptake in stomach): 2.28 ± 0.33 %ID/g | tissue uptake at 168 h (in vivo; uptake in stomach): 0.88 ± 0.12 %ID/g
SMILES: CCCC[C@@H](C(=O)N[C@@H](CC(=O)O)C(=O)N[C@@H](Cc1cccc2ccccc12)C(N)=O)N(C)C(=O)[C@H](Cc1c[nH]c2ccccc12)NC(=O)CCNC(=O)CC(O)CNC(=O)CC(O)CNC(=O)CN1CCN(CC(=O)O)CCN(CC(=O)O)CCN(CC(=O)O)CC1 (stereo partly shown) [[^177Lu]Lu-2, metal not drawn]
